Reference: PubChem BioAssay (NCI)
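A five-concentration, 48-hour dose response in 96-well plates underlies each endpoint, interpolated linearly between surrounding concentrations. TGI: total growth inhibition.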

Legend:
Experiment in all cases: growth of human tumour cells (NCI), 48 h
786-0 renal = tested on: 786-0 renal
A498 renal = tested on: A498 renal
A549 NSCLC = tested on: A549 NSCLC
ACHN renal = tested on: ACHN renal
CAKI-1 renal = tested on: CAKI-1 renal
CCRF-CEM leukemia = tested on: CCRF-CEM leukemia
DU-145 prostate = tested on: DU-145 prostate
EKVX NSCLC = tested on: EKVX NSCLC
HCT-116 colon = tested on: HCT-116 colon
HCT-15 colon = tested on: HCT-15 colon
HL-60(TB) leukemia = tested on: HL-60(TB) leukemia
HOP-62 NSCLC = tested on: HOP-62 NSCLC
HOP-92 NSCLC = tested on: HOP-92 NSCLC
HS 578T breast = tested on: HS 578T breast
HT29 colon = tested on: HT29 colon
IGROV1 ovarian = tested on: IGROV1 ovarian
K-562 leukemia = tested on: K-562 leukemia
KM12 colon = tested on: KM12 colon
LOX IMVI melanoma = tested on: LOX IMVI melanoma
M14 melanoma = tested on: M14 melanoma
MCF7 breast = tested on: MCF7 breast
MDA-MB-231 breast = tested on: MDA-MB-231 breast
MDA-MB-435 = tested on: MDA-MB-435
MDA-N = tested on: MDA-N
MOLT-4 leukemia = tested on: MOLT-4 leukemia
OVCAR-4 ovarian = tested on: OVCAR-4 ovarian
OVCAR-5 ovarian = tested on: OVCAR-5 ovarian
OVCAR-8 ovarian = tested on: OVCAR-8 ovarian
PC-3 prostate = tested on: PC-3 prostate
RPMI-8226 leukemia = tested on: RPMI-8226 leukemia
RXF 393 renal = tested on: RXF 393 renal
SF-268 CNS = tested on: SF-268 CNS
SK-MEL-2 melanoma = tested on: SK-MEL-2 melanoma
SK-MEL-28 melanoma = tested on: SK-MEL-28 melanoma
SK-MEL-5 melanoma = tested on: SK-MEL-5 melanoma
SK-OV-3 ovarian = tested on: SK-OV-3 ovarian
SN12C renal = tested on: SN12C renal
SNB-19 CNS = tested on: SNB-19 CNS
SNB-75 CNS = tested on: SNB-75 CNS
SR leukemia = tested on: SR leukemia
SW-620 colon = tested on: SW-620 colon
TK-10 renal = tested on: TK-10 renal
U251 CNS = tested on: U251 CNS
UACC-257 melanoma = tested on: UACC-257 melanoma
UACC-62 melanoma = tested on: UACC-62 melanoma
UO-31 renal = tested on: UO-31 renal
COLO 205 colon = tested on: COLO 205 colon
MALME-3M melanoma = tested on: MALME-3M melanoma
NCI-H460 lung = tested on: NCI-H460 lung
NCI-H522 lung = tested on: NCI-H522 lung
NCI/ADR-RES ovarian = tested on: NCI/ADR-RES ovarian
OVCAR-3 ovarian = tested on: OVCAR-3 ovarian
SF-295 CNS = tested on: SF-295 CNS
T-47D breast = tested on: T-47D breast

COc1cc(/C=C2\CCC(C)C3=C2NC(=S)NC3c2cc(OC)c(OC)c(OC)c2)cc(OC)c1OC (stereo not drawn)
TGI (786-0 renal): > 100 µM
TGI (A498 renal): > 100 µM
TGI (A549 NSCLC): > 100 µM
TGI (ACHN renal): > 100 µM
TGI (CAKI-1 renal): > 100 µM
TGI (CCRF-CEM leukemia): > 100 µM
TGI (DU-145 prostate): > 100 µM
TGI (EKVX NSCLC): > 100 µM
TGI (HCT-116 colon): > 100 µM
TGI (HCT-15 colon): > 100 µM
TGI (HL-60(TB) leukemia): 39.7 µM
TGI (HOP-62 NSCLC): > 100 µM
TGI (HOP-92 NSCLC): > 100 µM
TGI (HS 578T breast): > 100 µM
TGI (HT29 colon): > 100 µM
TGI (IGROV1 ovarian): > 100 µM
TGI (K-562 leukemia): > 100 µM
TGI (KM12 colon): > 100 µM
TGI (LOX IMVI melanoma): > 100 µM
TGI (M14 melanoma): > 100 µM
TGI (MCF7 breast): > 100 µM
TGI (MDA-MB-231 breast): > 100 µM
TGI (MDA-MB-435): > 100 µM
TGI (MDA-N): > 100 µM
TGI (MOLT-4 leukemia): 92.4 µM
TGI (OVCAR-4 ovarian): > 100 µM
TGI (OVCAR-5 ovarian): > 100 µM
TGI (OVCAR-8 ovarian): > 100 µM
TGI (PC-3 prostate): > 100 µM
TGI (RPMI-8226 leukemia): 68.4 µM
TGI (RXF 393 renal): > 100 µM
TGI (SF-268 CNS): > 100 µM
TGI (SK-MEL-2 melanoma): > 100 µM
TGI (SK-MEL-28 melanoma): > 100 µM
TGI (SK-MEL-5 melanoma): 59 µM
TGI (SK-OV-3 ovarian): > 100 µM
TGI (SN12C renal): > 100 µM
TGI (SNB-19 CNS): > 100 µM
TGI (SNB-75 CNS): 66.3 µM
TGI (SR leukemia): > 100 µM
TGI (SW-620 colon): > 100 µM
TGI (TK-10 renal): > 100 µM
TGI (U251 CNS): > 100 µM
TGI (UACC-257 melanoma): > 100 µM
TGI (UACC-62 melanoma): > 100 µM
TGI (UO-31 renal): 66 µM

CN(Cc1cnc2nc(N)nc(N)c2n1)c1ccc(C(=O)NC(CCC(=O)NCC(P(=O)(O)O)P(=O)(O)O)C(=O)O)cc1 (stereo not drawn)
TGI (786-0 renal): > 100 µM
TGI (A549 NSCLC): > 100 µM
TGI (ACHN renal): > 100 µM
TGI (COLO 205 colon): > 100 µM
TGI (DU-145 prostate): > 100 µM
TGI (EKVX NSCLC): > 100 µM
TGI (HCT-116 colon): > 100 µM
TGI (HCT-15 colon): > 100 µM
TGI (HOP-62 NSCLC): 68 µM
TGI (HS 578T breast): > 100 µM
TGI (HT29 colon): > 100 µM
TGI (IGROV1 ovarian): > 100 µM
TGI (LOX IMVI melanoma): > 100 µM
TGI (M14 melanoma): > 100 µM
TGI (MALME-3M melanoma): > 100 µM
TGI (MDA-MB-231 breast): > 100 µM
TGI (MDA-N): > 100 µM
TGI (MOLT-4 leukemia): > 100 µM
TGI (NCI-H460 lung): > 100 µM
TGI (NCI-H522 lung): > 100 µM
TGI (NCI/ADR-RES ovarian): > 100 µM
TGI (OVCAR-3 ovarian): > 100 µM
TGI (OVCAR-4 ovarian): > 100 µM
TGI (OVCAR-8 ovarian): > 100 µM
TGI (PC-3 prostate): > 100 µM
TGI (SF-268 CNS): > 100 µM
TGI (SF-295 CNS): > 100 µM
TGI (SK-MEL-2 melanoma): > 100 µM
TGI (SK-MEL-5 melanoma): > 100 µM
TGI (SK-OV-3 ovarian): > 100 µM
TGI (SN12C renal): > 100 µM
TGI (SNB-75 CNS): > 100 µM
TGI (SR leukemia): > 100 µM
TGI (SW-620 colon): > 100 µM
TGI (T-47D breast): > 100 µM
TGI (UACC-257 melanoma): > 100 µM
TGI (UACC-62 melanoma): > 100 µM
